Results as given in patent US10730875B2, “Substituted imidazo[1,2-A]pyridin-2-ylamine compounds, and pharmaceutical compositions and methods of use thereof” (JN Therapeutics, priority 2015, dated 2020).

Assays:
Type in all cases: biochemical
[1] = molecular target: human Janus kinase 1 (JAK1), recombinant catalytic domain (Homo sapiens (Human), UniProt P23458); assay: LanthaScreen TR-FRET enzymatic assay, JAK1; conditions: 1 mM ATP, GFP-STAT1 substrate, read-out: Inhibitory Activity IC50 JAK1
Summary of the method: (§1)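 Insect-cell-expressed catalytic domains (JAK1 aa 866-1154, 440 ng/mL; JAK2 aa 808-1132, 11 ng/mL; JAK3 aa 781-1124, 400 ng/mL; TYK2 aa 833-1187, 200 ng/mL) preincubated 15 min with compound, then reacted 1 h at room temperature with 100 nM GFP-STAT1 and 1 mM ATP. pTyr701 detected by TR-FRET (terbium antibody); IC50 from 10-dose sigmoid fits.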

[2] = molecular target: human Janus kinase 3 (JAK3), recombinant catalytic domain (Homo sapiens (Human), UniProt P52333); assay: LanthaScreen TR-FRET enzymatic assay, JAK3; conditions: TR-FRET, 1 mM ATP, GFP-STAT1 substrate; read-out: Inhibitory Activity IC50 JAK3
Sequence of human Janus kinase 3 (JAK3), recombinant catalytic domain (Homo sapiens (Human), UniProt P52333) (P52333 781-1124): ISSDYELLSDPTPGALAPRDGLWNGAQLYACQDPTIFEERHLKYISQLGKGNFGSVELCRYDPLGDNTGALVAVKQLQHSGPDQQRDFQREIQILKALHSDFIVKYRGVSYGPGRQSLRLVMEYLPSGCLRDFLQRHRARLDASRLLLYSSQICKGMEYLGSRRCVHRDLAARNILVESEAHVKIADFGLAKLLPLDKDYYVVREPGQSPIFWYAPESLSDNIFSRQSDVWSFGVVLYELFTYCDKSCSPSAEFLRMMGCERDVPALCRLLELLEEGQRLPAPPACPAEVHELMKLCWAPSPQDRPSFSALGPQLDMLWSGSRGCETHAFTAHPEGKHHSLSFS
Summary of the method: as §1

[3] = tested on: human Janus kinase 3 (JAK3), recombinant catalytic domain; assay: LanthaScreen TR-FRET enzymatic assay, JAK3; conditions: ratio of IC50 against JAK3 over IC50 against JAK1
Summary of the method: as §1

Sequence of human Janus kinase 1 (JAK1), recombinant catalytic domain (P23458 866-1154): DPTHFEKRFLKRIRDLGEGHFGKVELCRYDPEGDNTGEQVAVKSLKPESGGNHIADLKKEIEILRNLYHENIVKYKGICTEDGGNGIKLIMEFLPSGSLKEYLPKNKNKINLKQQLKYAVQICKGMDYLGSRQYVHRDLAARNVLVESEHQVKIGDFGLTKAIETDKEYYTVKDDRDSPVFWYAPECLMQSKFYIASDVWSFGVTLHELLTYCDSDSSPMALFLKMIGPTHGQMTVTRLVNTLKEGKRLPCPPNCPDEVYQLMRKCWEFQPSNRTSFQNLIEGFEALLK

IC50 [1]: ≤ 500 nM
IC50 [2]: > 5000 nM
Structure (SMILES): O=C(Nc1cn2c(-c3ccc(CN4CCS(=O)(=O)CC4)cc3F)cccc2n1)C1CC1 [Compound 14]
Selectivity JAK3/JAK1 [3]: A′ (A′ represents a ratio of greater than 8)
